{"source": "patent US20240124510A1", "about": "“Cyclic Glycoaminoacid Derivatives” (TFCHEM, priority 2021, published 2024)", "key": {"human preadipocytes": {"system": "human preadipocytes", "assay": "Proliferation of preadipocytes in classical differentiation conditions (DAPI nuclei staining)", "format": "cell-based", "details": "2 mg/ml; for Cells number at the end of the culture, DAPI staining, Mean: differentiated control 10 118 AU", "experimental": "(§1) Preadipocytes have been isolated from human female hypodermis (body mass index <30 kg/m2 and <45 years old). Preadipocytes have been cultured for 24 h in 100 μl of DMEM-10% Fetal Bovine Serum (FBS) in 96-well plates. Then cells were treated to induce their differentiation in a classical or an inflammatory environment for 13 days.\n(§2) To induce the preadipocytes differentiation cells were incubated in a proadipogenic cocktail (PAC) including insulin, glucocorticoid, 3-isobutyl-1-methylxanthine (IBMX), and thiazolinedione in DMEM.\n(§3) To induce a fibro-inflammatory environment, cells were treated with an activated human macrophage-conditioned medium (AcMC) prepared in RPMI medium. A treatment with Dexamethasone (DXM) at 100 nM was used as anti-inflammatory response control. At D0: preadipocytes have been treated in the following conditions: • “Undifferentiation”: DMEM+¼ RPMI medium • “Differentiation”: PAC+¼ RPMI medium • “AcMC” i.e. inflammatory condition: PAC+¼ AcMC • “AcMC+DXM”: PAC+[…] AcMC+anti-inflammatory DXM at 100 nM • “AcMc+compounds”: PAC+14 AcMC+compounds to be tested\n(§4) All conditions have been performed in triplicate. The medium has been changed every 2 days for 13 days.\nThe number of cells was determined for each condition by DAPI nuclei staining (nuclei) and expressed in arbitrary unit."}, "Collagen I fibers": {"system": "Collagen I fibers", "assay": "Quantity of Collagen 1 fibers produced by preadipocytes in inflammatory condition (immunofluorescence)", "format": "cell-based, human", "details": "for Collagen I fibers quantity, Mean (%) / Collagen I fibers quantity, Values (%): inflammatory condition, normalized by cells number (Dapi); for Collagen I fibers quantity, Values (%): individual values; for Collagen I fibers quantity compared to the AcMC control condition fixed at 100%: preadipocytes", "experimental": "as §1, §2, §3\nOne month after fixation of preadipocytes cultivated in pro-inflammatory environment, cells were incubated with 3% Bovine Serum Albumin (BSA) for 30 min in order to block the non-specific sites, then with primary antibody anti-collagen 1 (Novusbio, NB600-408) over-night. After washes with PBS, cells were incubated for 30 min with 3% BSA and then with the secondary antibodies (Goat anti-rabbit alexa-fluor 488, ThermoFisher, A11008) and DAPI (for nuclei staining) for 1 h. After several washes, the acquisition and the quantification were performed with a fluorescent video-microscope. Briefly, the quantification was based on the detection and quantification of cell nuclei stained with DAPI, and the detection of collagen 1 staining. Collagen 1 fibers were detected and measured for their length, thickness and intensity. A Collagen 1 fibers quantity was calculated (Quantity=length*thickness*fluorescence intensity) and normalized by cells number (DAPI staining).\nCollagen I fibers (fibrillar collagen I) quantity was quantified and the data were normalized by cell number (DAPI staining, quantification of nuclei number). Data are represented in percentage of proinflammatory control conditions (AcMC condition)."}, "IL-6": {"system": "IL-6", "assay": "IL-6 secretion in coculture of human aged fibroblasts and mature adipocytes (AM3D-FB2D, ELISA)", "format": "cell-based", "details": "for secretion of IL-6 in percentage of the coculture control condition, Values (%): individual replicates", "source_text": "In order to evaluate its effect on fibroblast matrix and its anti-inflammatory properties, the effect of compound 6 has been tested on an adipocytes-aged fibroblasts coculture model, mimicking the interactions between dermis and hypodermis in the skin and allowed to explore in parallel the biological effects of the products on two cellular targets.\n• Experimental model: co-culture of human mature adipocytes cultured in 3D and human dermal fibroblasts cultured in 2D (AM3D-FB2D co-culture). This experimental model of AM3D-FB2D co-culture mimicked the interactions between dermis and hypodermis in the skin and allowed to explore in parallel the biological effects of the products on two cellular targets. • Donor characteristics: This study was performed on mature adipocytes and fibroblasts from two different donors (one donor for mature adipocytes and another donor for dermal fibroblasts). • Fibroblasts donor=person, BMI=28 kg/m^2 • Adipocytes donor=person, BMI=21.4 kg/m^2 • Treatment procedure: compound 6 was added to the co-culture medium daily for up to 6 days\nDermal fibroblasts were seeded in DMEM 10% FBS at 10000 cells/well. The day after, the adipocytes capsules of 50 μl were added in suspension above the fibroblasts and the medium was changed and replaced by a specific culture medium for the co-culture AM3D-FB2D. The formation of adipocytes capsules followed an internal standardized protocol. Briefly, the fully mature adipocytes were isolated from the hypodermis after digestion by collagenase. The isolated adipocytes were then washed with a wash buffer and encapsulated in a peptidic hydrogel to form 3D adipocytes capsules of 50 μl in size. Cells were incubated at 37° C. and 5% CO2 overnight for stabilization. Treatments were initiated at DO with a medium change at DO, D2, D3 and D5. The entire culture media of 24 h incubation was collected at D3 and D6, before being centrifugated and stored at −80° C. Each culture condition was done in triplicate.\nThe biochemical analyses on culture media were performed via ELISA using specific kits according to the manufacturer's recommendations: IL-6 (Duoset DY206, R&D Systems), and Hyaluronic Acid (HA) (Duoset, DY3614-05, R&D Systems and Procollagen I (Duoset, DY6220-05, R&D Systems) The results of HA and Procollagen I were normalized by fibroblasts cell number regarding the fact that these molecules were secreted mainly by fibroblasts. All the biochemical results were represented in percentage of the control condition.\nTo evaluate the effect of the compound 6 on inflammation, the extracellular concentrations of IL-6, that is secreted by the fibroblasts but mainly by the adipocytes, were measured at D3 and D6."}, "MCP1": {"system": "MCP1", "assay": "Extracellular secretion of MCP1 by preadipocytes in inflammatory condition (ELISA)", "format": "cell-based, human", "details": "for MCP1 secretion, Mean (%) / MCP1 secretion, Values (%): inflammatory condition, normalized by cells number (Dapi); for MCP1 secretion, Values (%): individual values; for MCP1 secretion compared to the AcMC control condition fixed at 100%: differentiated preadipocytes", "experimental": "as §1, §2, §3, §4\nAt D14: during the last 24 h of culture, the medium has been replaced by DMEM/F12 medium in all conditions, to collect cells' secretions.\nAfter 13 days, the 24 h culture media of the different conditions have been collected at the end of the treatment period. The concentrations of IL-6, procollagen I and MCP1 have been evaluated by ELISA assays using specific kits (for IL-6: DY206, DuoSet ELISA, R&D Systems; for Procollagen I: DY6220-05, DuoSet ELISA, R&D Systems; for MCP1: DY279-05 DuoSet ELISA, R&D Systems) according to the manufacture's recommendations. Values have been normalized to the cell number determined by DAPI staining.\nQuantity of MCP1 secreted in medium was measured and was normalized by cell number in each culture condition. Data are represented in percentage of proinflammatory control condition (AcMC condition)."}}, "note": "Values joined by “and” are separate entries in the source; they are usually repeats but may differ in a detail not shown here. Equal values may be shown once.", "data": [{"smiles": "N[C@H]1CCCN(CC(F)(F)[C@]2(O)O[C@H](CO)[C@H](O)[C@H](O)[C@H]2O)C1=O", "note": "[Compound 6]", "values": [{"measurement": "Cells number at the end of the culture, DAPI staining, Mean", "setting": "human preadipocytes", "result": 13197, "unit": "AU"}, {"measurement": "Cells number at the end of the culture, DAPI staining, Mean", "setting": "human preadipocytes; listed as compound 6", "result": "13 197 AU"}, {"measurement": "Cells number at the end of the culture (DAPI staining), Values", "setting": "human preadipocytes; single replicates", "result": "13454 AU and 12839 AU and 13298 AU"}, {"measurement": "Collagen I fibers quantity, Mean (%)", "setting": "Collagen I fibers; 1 mg/ml", "result": "154 % of AcMC condition"}, {"measurement": "Collagen I fibers quantity, Values (%)", "setting": "Collagen I fibers; 1 mg/ml", "result": "136.7 % of AcMC condition and 160.5 % of AcMC condition and 165.3 % of AcMC condition"}, {"measurement": "Collagen I fibers quantity, Mean (%)", "setting": "Collagen I fibers; 2 mg/ml", "result": "213 % of AcMC condition"}, {"measurement": "Collagen I fibers quantity, Values (%)", "setting": "Collagen I fibers; 2 mg/ml", "result": "193.5 % of AcMC condition and 230.7 % of AcMC condition and 213.7 % of AcMC condition"}, {"measurement": "Collagen I fibers quantity compared to the AcMC control condition fixed at 100%", "setting": "Collagen I fibers; 1 mg/ml", "result": 154, "unit": "%"}, {"measurement": "Collagen I fibers quantity compared to the AcMC control condition fixed at 100%", "setting": "Collagen I fibers; 2 mg/ml", "result": 213, "unit": "%"}, {"measurement": "IL-6 secretion in percentage of the coculture control condition", "setting": "IL-6; 2 mg/ml, D3", "result": 72, "unit": "%"}, {"measurement": "IL-6 secretion in percentage of the coculture control condition", "setting": "IL-6; 2 mg/ml, D6", "result": 53, "unit": "%"}, {"measurement": "IL-6 secretion in percentage of the coculture control condition", "setting": "IL-6; 3 mg/ml, D3", "result": 73, "unit": "%"}, {"measurement": "IL-6 secretion in percentage of the coculture control condition", "setting": "IL-6; 3 mg/ml, D6", "result": 61, "unit": "%"}, {"measurement": "secretion of IL-6 in percentage of the coculture control condition, Mean (%)", "setting": "IL-6; D3, 2 mg/ml", "result": 72, "unit": "%"}, {"measurement": "secretion of IL-6 in percentage of the coculture control condition, Values (%)", "setting": "IL-6; D3, 2 mg/ml", "result": "56% and 78% and 82%"}, {"measurement": "secretion of IL-6 in percentage of the coculture control condition, Mean (%)", "setting": "IL-6; D3, 3 mg/ml", "result": 73, "unit": "%"}, {"measurement": "secretion of IL-6 in percentage of the coculture control condition, Values (%)", "setting": "IL-6; D3, 3 mg/ml", "result": "75% and 63% and 79%"}, {"measurement": "secretion of IL-6 in percentage of the coculture control condition, Mean (%)", "setting": "IL-6; D6, 2 mg/ml", "result": 53, "unit": "%"}, {"measurement": "secretion of IL-6 in percentage of the coculture control condition, Values (%)", "setting": "IL-6; D6, 2 mg/ml", "result": "46% and 66% and 45%"}, {"measurement": "secretion of IL-6 in percentage of the coculture control condition, Mean (%)", "setting": "IL-6; D6, 3 mg/ml", "result": 61, "unit": "%"}, {"measurement": "secretion of IL-6 in percentage of the coculture control condition, Values (%)", "setting": "IL-6; D6, 3 mg/ml", "result": "59% and 54% and 71%"}, {"measurement": "MCP1 secretion, Mean (%)", "setting": "MCP1; 1 mg/ml", "result": "71 % of AcMC condition"}, {"measurement": "MCP1 secretion, Values (%)", "setting": "MCP1; 1 mg/ml", "result": "58.8 % of AcMC condition and 67.5 % of AcMC condition and 85.6 % of AcMC condition"}, {"measurement": "MCP1 secretion, Mean (%)", "setting": "MCP1; 2 mg/ml", "result": "65 % of AcMC condition"}, {"measurement": "MCP1 secretion, Values (%)", "setting": "MCP1; 2 mg/ml", "result": "62.8 % of AcMC condition and 65.6 % of AcMC condition and 67.5 % of AcMC condition"}, {"measurement": "MCP1 secretion compared to the AcMC control condition fixed at 100%", "setting": "MCP1; 1 mg/ml", "result": 71, "unit": "%"}, {"measurement": "MCP1 secretion compared to the AcMC control condition fixed at 100%", "setting": "MCP1; 2 mg/ml", "result": 65, "unit": "%"}]}]}
